#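 Tested at 5 concentrations; 48 h exposure; 96-well plates; endpoints linearly interpolated, else capped at highest concentration. At the GI50, growth is halved.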 The source made the active and inactive calls. Rule as the data show it: active = GI50 up to about 1.1 µM and inactive = higher.
# What was measured:
# Assay in all cases: inhibition of tumour cell growth, NCI panel, 48 h
# 786-0 = tested on: 786-0
# UACC-62 = tested on: UACC-62
# NCI-H460 = tested on: NCI-H460
# OVCAR-8 = tested on: OVCAR-8
# SF-268 = tested on: SF-268
# DMS-114 = tested on: DMS-114
# HOP-62 = tested on: HOP-62
# IGROV-1 = tested on: IGROV-1
# HCT-116 = tested on: HCT-116
# TK-10 = tested on: TK-10
# COLO 205 = tested on: COLO 205
# CCRF-CEM = tested on: CCRF-CEM
# SN12C = tested on: SN12C
# HOP-18 = tested on: HOP-18
# U-251 = tested on: U-251
# SR = tested on: SR
# ACHN = tested on: ACHN
# K562 = tested on: K562
# HCC 2998 = tested on: HCC 2998
# MOLT-4 = tested on: MOLT-4
# M14 = tested on: M14
# M19-MEL = tested on: M19-MEL
# CAKI-1 = tested on: CAKI-1
# KM-20L2 = tested on: KM-20L2
# RPMI-8226 = tested on: RPMI-8226
# HOP-92 = tested on: HOP-92
# UACC-257 = tested on: UACC-257
# OVCAR-4 = tested on: OVCAR-4
# SF-539 = tested on: SF-539
# DMS-273 = tested on: DMS-273
# UO-31 = tested on: UO-31
# SNB-19 = tested on: SNB-19
# SF-295 = tested on: SF-295
# SK-MEL-5 = tested on: SK-MEL-5
# A549 = tested on: A549
# SK-MEL-28 = tested on: SK-MEL-28
# SW-620 = tested on: SW-620
# KM12 = tested on: KM12
# RXF 393 = tested on: RXF 393
# OVCAR-3 = tested on: OVCAR-3
# HT-29 = tested on: HT-29
# Malme-3M = tested on: Malme-3M
# SK-OV-3 = tested on: SK-OV-3
# HCT-15 = tested on: HCT-15
# LXFL 529 = tested on: LXFL 529
# SK-MEL-2 = tested on: SK-MEL-2
# A498 = tested on: A498
# OVCAR-5 = tested on: OVCAR-5
# LOX IMVI = tested on: LOX IMVI
# NCI-H226 = tested on: NCI-H226
# NCI-H23 = tested on: NCI-H23
# SNB-75 = tested on: SNB-75
# EKVX = tested on: EKVX
# HL-60 = tested on: HL-60
# SNB-78 = tested on: SNB-78
# NCI-H522 = tested on: NCI-H522
# DLD-1 = tested on: DLD-1
compound,measurement,setting,value
CCc1cc(Cc2cc(Cl)c(NC(=O)C(=O)C3NC(=O)NC3=O)c(CC)c2)cc(Cl)c1NC(=O)C(=O)C1NC(=O)NC1=O (centres undefined),GI50,786-0,42.7 µM (inactive)
same,GI50,UACC-62,46.7 µM (inactive)
same,GI50,NCI-H460,36.1 µM (inactive)
same,GI50,OVCAR-8,21.4 µM (inactive)
same,GI50,SF-268,20.7 µM (inactive)
same,GI50,DMS-114,26.9 µM (inactive)
same,GI50,HOP-62,> 100 µM (inactive)
same,GI50,IGROV-1,> 100 µM (inactive)
same,GI50,HCT-116,31.3 µM (inactive)
same,GI50,TK-10,> 100 µM (inactive)
same,GI50,COLO 205,57.8 µM (inactive)
same,GI50,CCRF-CEM,34.5 µM (inactive)
same,GI50,SN12C,50.8 µM (inactive)
same,GI50,HOP-18,> 100 µM (inactive)
same,GI50,U-251,17.1 µM (inactive)
same,GI50,SR,37.2 µM (inactive)
same,GI50,ACHN,94.4 µM (inactive)
same,GI50,K562,37.2 µM (inactive)
same,GI50,HCC 2998,42.8 µM (inactive)
same,GI50,MOLT-4,66.5 µM (inactive)
same,GI50,M14,48.5 µM (inactive)
same,GI50,M19-MEL,51.3 µM (inactive)
same,GI50,CAKI-1,> 100 µM (inactive)
same,GI50,KM-20L2,33.9 µM (inactive)
same,GI50,RPMI-8226,26.4 µM (inactive)
same,GI50,HOP-92,> 100 µM (inactive)
same,GI50,UACC-257,30.6 µM (inactive)
same,GI50,OVCAR-4,> 100 µM (inactive)
same,GI50,SF-539,35.1 µM (inactive)
same,GI50,DMS-273,20.4 µM (inactive)
same,GI50,UO-31,> 100 µM (inactive)
same,GI50,SNB-19,36.9 µM (inactive)
same,GI50,SF-295,51.4 µM (inactive)
same,GI50,SK-MEL-5,> 100 µM (inactive)
same,GI50,A549,75 µM (inactive)
same,GI50,SK-MEL-28,37.5 µM (inactive)
same,GI50,SW-620,8.47 µM (inactive)
same,GI50,KM12,> 100 µM (inactive)
same,GI50,RXF 393,22.9 µM (inactive)
same,GI50,OVCAR-3,36.8 µM (inactive)
same,GI50,HT-29,26.1 µM (inactive)
same,GI50,Malme-3M,> 100 µM (inactive)
same,GI50,SK-OV-3,33.9 µM (inactive)
same,GI50,HCT-15,17.3 µM
same,GI50,LXFL 529,45.1 µM (inactive)
same,GI50,SK-MEL-2,> 100 µM (inactive)
same,GI50,A498,> 100 µM (inactive)
same,GI50,OVCAR-5,> 100 µM (inactive)
same,GI50,LOX IMVI,31.8 µM (inactive)
same,GI50,NCI-H226,> 100 µM (inactive)
same,GI50,NCI-H23,26.6 µM (inactive)
same,GI50,SNB-75,30.9 µM (inactive)
same,GI50,EKVX,> 100 µM (inactive)
same,GI50,HL-60,35.2 µM (inactive)
same,GI50,SNB-78,75.7 µM (inactive)
Cc1ccc(S(=O)(=O)OCCn2cnc3nc(NC(=O)c4ccccc4)[nH]c(=O)c32)cc1,GI50,786-0,> 100 µM (inactive)
same,GI50,UACC-62,> 100 µM (inactive)
same,GI50,NCI-H460,> 100 µM (inactive)
same,GI50,OVCAR-8,> 100 µM (inactive)
same,GI50,SF-268,> 100 µM (inactive)
same,GI50,DMS-114,> 100 µM (inactive)
same,GI50,HOP-62,> 100 µM (inactive)
same,GI50,IGROV-1,> 100 µM (inactive)
same,GI50,HCT-116,> 100 µM (inactive)
same,GI50,TK-10,> 100 µM (inactive)
same,GI50,COLO 205,> 100 µM (inactive)
same,GI50,CCRF-CEM,> 100 µM (inactive)
same,GI50,SN12C,> 100 µM (inactive)
same,GI50,HOP-18,> 100 µM (inactive)
same,GI50,U-251,> 100 µM (inactive)
same,GI50,SR,> 100 µM (inactive)
same,GI50,ACHN,> 100 µM (inactive)
same,GI50,K562,> 100 µM (inactive)
same,GI50,M14,> 100 µM (inactive)
same,GI50,M19-MEL,> 100 µM (inactive)
same,GI50,CAKI-1,> 100 µM (inactive)
same,GI50,KM-20L2,> 100 µM (inactive)
same,GI50,RPMI-8226,> 100 µM (inactive)
same,GI50,HOP-92,> 100 µM (inactive)
same,GI50,UACC-257,> 100 µM (inactive)
same,GI50,OVCAR-4,> 100 µM (inactive)
same,GI50,SF-539,> 100 µM (inactive)
same,GI50,DMS-273,> 100 µM (inactive)
same,GI50,UO-31,> 100 µM (inactive)
same,GI50,SNB-19,> 100 µM (inactive)
same,GI50,SF-295,> 100 µM (inactive)
same,GI50,SK-MEL-5,> 100 µM (inactive)
same,GI50,NCI-H522,52.6 µM (inactive)
same,GI50,A549,> 100 µM (inactive)
same,GI50,SK-MEL-28,> 100 µM (inactive)
same,GI50,SW-620,> 100 µM (inactive)
same,GI50,KM12,> 100 µM (inactive)
same,GI50,RXF 393,> 100 µM (inactive)
same,GI50,OVCAR-3,> 100 µM (inactive)
same,GI50,HT-29,> 100 µM (inactive)
same,GI50,Malme-3M,> 100 µM (inactive)
same,GI50,SK-OV-3,> 100 µM (inactive)
same,GI50,HCT-15,> 100 µM
same,GI50,DLD-1,> 100 µM (inactive)
same,GI50,LXFL 529,94.6 µM (inactive)
same,GI50,SK-MEL-2,> 100 µM (inactive)
same,GI50,A498,> 100 µM (inactive)
same,GI50,OVCAR-5,> 100 µM (inactive)
same,GI50,LOX IMVI,> 100 µM (inactive)
same,GI50,NCI-H226,> 100 µM (inactive)
same,GI50,SNB-75,> 100 µM (inactive)
same,GI50,EKVX,> 100 µM (inactive)
same,GI50,HL-60,> 100 µM (inactive)
same,GI50,SNB-78,> 100 µM (inactive)

# — ChEMBL document CHEMBL1201862, “PubChem BioAssay data set” (2004)
